Reference: ChEMBL document CHEMBL1629655, “Affinity of Tomopenem (CS-023) for penicillin-binding proteins in Staphylococcus aureus, Escherichia coli, and Pseudomonas aeruginosa” (Antimicrob Agents Chemother, 2009)
Values after ≈ are worked out from the molar mass of the structure shown.

Legend:
Staphylococcus aureus [1] = test: Antibacterial activity against Staphylococcus aureus SRR2a selected at 2 times MIC of tomopenem by microdilution method; assay type: functional
Staphylococcus aureus [2] = test: Ratio of MIC for Staphylococcus aureus SMR2a to MIC for Staphylococcus aureus ATCC 6538P; assay type: functional
Escherichia coli [3] = test: Ratio of MIC for Escherichia coli ERR2b to MIC for Escherichia coli NIHJ; assay type: functional
Staphylococcus aureus [4] = test: Antibacterial activity against Staphylococcus aureus SMR4a […] MIC of meropenem by microdilution method; assay type: functional
Staphylococcus aureus [5] = test: Antibacterial activity against Staphylococcus aureus SIR2a selected at 2 times MIC of imipenem by microdilution method; assay type: functional
Staphylococcus aureus [6] = test: Ratio of MIC for Staphylococcus aureus SIR2a selected at 2 times MIC of imipenem to MIC for Staphylococcus aureus ATCC 6538P; assay type: functional
Staphylococcus aureus [7] = test: Ratio of MIC for Staphylococcus aureus SMR4a to MIC for Staphylococcus aureus ATCC 6538P; assay type: functional
Staphylococcus aureus [8] = test: Ratio of MIC for Staphylococcus aureus SRR2a to MIC for Staphylococcus aureus ATCC 6538P; assay type: functional
Pseudomonas aeruginosa [9] = test: Antibacterial activity against Pseudomonas aeruginosa PIR2a selected at 2 times MIC of imipenem by microdilution method; assay type: functional
Staphylococcus aureus [10] = test: Antibacterial activity against Staphylococcus aureus SMR2a selected at 2 times MIC of meropenem by microdilution method; assay type: functional
[11] = Displacement of [14C]benzylpenicillin from PBP1A in Pseudomonas aeruginosa ATCC 15692
Pseudomonas aeruginosa [12] = test: Ratio of MIC for Pseudomonas aeruginosa PRR4a to MIC for Pseudomonas aeruginosa ATCC 15692; assay type: functional
Escherichia coli [13] = test: Antibacterial activity against Escherichia coli NIHJ by microdilution method; assay type: functional, organism-based
[14] = Displacement of [14C]benzylpenicillin from PBP1 in Staphylococcus aureus ATCC 6538P
Escherichia coli [15] = test: Antibacterial activity against Escherichia coli EIR4a selected at 4 times MIC of imipenem by microdilution method; assay type: functional
[16] = Displacement of [14C]benzylpenicillin from PBP5 in Escherichia coli NIHJ
[17] = Displacement of [14C]benzylpenicillin from PBP2 Staphylococcus aureus ATCC 6538P
[18] = Displacement of [14C]benzylpenicillin from PBP4 in Escherichia coli NIHJ
Escherichia coli [19] = test: Ratio of MIC for Escherichia coli EIR2a to MIC for Escherichia coli NIHJ; assay type: functional
Escherichia coli [20] = test: Ratio of MIC for Escherichia coli EIR2b to MIC for Escherichia coli NIHJ; assay type: functional
Pseudomonas aeruginosa [21] = test: Antibacterial activity against Pseudomonas aeruginosa ATCC 15692 by microdilution method; assay type: functional, organism-based
Escherichia coli [22] = test: Ratio of MIC for Escherichia coli ERR4a to MIC for Escherichia coli NIHJ; assay type: functional
[23] = Displacement of [14C]benzylpenicillin from PBP 6 in Pseudomonas aeruginosa ATCC 15692
Escherichia coli [24] = test: Antibacterial activity against Escherichia coli ERR2a selected at 2 times MIC of tomopenem by microdilution method; assay type: functional
[25] = Displacement of [14C]benzylpenicillin from PBP3 in Pseudomonas aeruginosa ATCC 15692
Escherichia coli [26] = test: Ratio of MIC for Escherichia coli EIR4a to MIC for Escherichia coli NIHJ; assay type: functional
Escherichia coli [27] = test: Antibacterial activity against Escherichia coli EIR2b selected at 2 times MIC of imipenem by microdilution method; assay type: functional
[28] = Displacement of [14C]benzylpenicillin from PBP6 Escherichia coli NIHJ
[29] = Displacement of [14C]benzylpenicillin from PBP4 in Staphylococcus aureus ATCC 6538P
Pseudomonas aeruginosa [30] = test: Ratio of MIC for Pseudomonas aeruginosa PIR2a to MIC for Pseudomonas aeruginosa ATCC 15692; assay type: functional
[31] = Displacement of [14C]benzylpenicillin from PBP 5 in Pseudomonas aeruginosa ATCC 15692
Escherichia coli [32] = test: Ratio of MIC for Escherichia coli EIR8a to MIC for Escherichia coli NIHJ; assay type: functional
[33] = Displacement of [14C]benzylpenicillin from PBP1B in Escherichia coli NIHJ
Escherichia coli [34] = test: Antibacterial activity against Escherichia coli EIR8a selected at 8 times MIC of imipenem by microdilution method; assay type: functional
[35] = Displacement of [14C]benzylpenicillin from PBP1B in Pseudomonas aeruginosa ATCC 15692
Escherichia coli [36] = test: Antibacterial activity against Escherichia coli EIR2a selected at 2 times MIC of imipenem by microdilution method; assay type: functional
[37] = Displacement of [14C]benzylpenicillin from PBP4 in Pseudomonas aeruginosa ATCC 15692
Escherichia coli [38] = test: Antibacterial activity against Escherichia coli EMR2a selected at 2 times MIC of meropenem by microdilution method; assay type: functional
Escherichia coli [39] = test: Ratio of MIC for Escherichia coli EIR4b to MIC for Escherichia coli NIHJ; assay type: functional
Escherichia coli [40] = test: Antibacterial activity against Escherichia coli EIR4b selected at 4 times MIC of imipenem by microdilution method; assay type: functional
Pseudomonas aeruginosa [41] = test: Antibacterial activity against Pseudomonas aeruginosa PRR4a selected at 4 times MIC of tomopenem by microdilution method; assay type: functional
Escherichia coli [42] = test: Antibacterial activity against Escherichia coli ERR8a selected at 8 times MIC of tomopenem by microdilution method; assay type: functional
Pseudomonas aeruginosa [43] = test: Ratio of MIC for Pseudomonas aeruginosa PMR2a to MIC for Pseudomonas aeruginosa ATCC 15692; assay type: functional
[44] = Displacement of [14C]benzylpenicillin from PBP3 in Staphylococcus aureus ATCC 6538P
Staphylococcus aureus [45] = test: Antibacterial activity against Staphylococcus aureus ATCC 6538P by microdilution method; assay type: functional, organism-based
[46] = Displacement of [14C]benzylpenicillin from PBP1A in Escherichia coli NIHJ
Escherichia coli [47] = test: Ratio of MIC for Escherichia coli EMR2a to MIC for Escherichia coli NIHJ; assay type: functional
[48] = Displacement of [14C]benzylpenicillin from PBP2 in Escherichia coli NIHJ
Escherichia coli [49] = test: Antibacterial activity against Escherichia coli ERR2b selected at 2 times MIC of tomopenem by microdilution method; assay type: functional
[50] = Displacement of [14C]benzylpenicillin from PBP3 in Escherichia coli NIHJ
Pseudomonas aeruginosa [51] = test: Antibacterial activity against Pseudomonas aeruginosa PMR2a selected at 2 times MIC of meropenem by microdilution method; assay type: functional
Escherichia coli [52] = test: Ratio of MIC for Escherichia coli ERR2a selected to MIC for Escherichia coli NIHJ; assay type: functional
[53] = Displacement of [14C]benzylpenicillin from PBP2 in Pseudomonas aeruginosa ATCC 15692
Escherichia coli [54] = test: Antibacterial activity against Escherichia coli ERR4a selected at 4 times MIC of tomopenem by microdilution method; assay type: functional
Escherichia coli [55] = test: Ratio of MIC for Escherichia coli ERR8a to MIC for Escherichia coli NIHJ; assay type: functional

C[C@H]1COc2c(N3CCN(C)CC3)c(F)cc3c(=O)c(C(=O)O)cn1c23.C[C@H]1COc2c(N3CCN(C)CC3)c(F)cc3c(=O)c(C(=O)O)cn1c23.O [LEVOFLOXACIN]
MIC (Staphylococcus aureus [1]): 0.12 µg/mL
Ratio MIC (Staphylococcus aureus [2]): 2
Ratio MIC (Escherichia coli [3]): 2
MIC (Staphylococcus aureus [4]): 0.06 µg/mL
MIC (Staphylococcus aureus [5]): 0.06 µg/mL
Ratio MIC (Staphylococcus aureus [6]): 1
ratio (Staphylococcus aureus [7]): 1
Ratio MIC (Staphylococcus aureus [8]): 2
MIC (Pseudomonas aeruginosa [9]): 0.5 µg/mL
MIC (Staphylococcus aureus [10]): 0.12 µg/mL

C[C@@H](O)[C@H]1C(=O)N2C(C(=O)O)=C(S[C@@H]3CN[C@H](C(=O)N(C)C)C3)[C@H](C)[C@H]12 [MEROPENEM]
IC50 [11]: 0.12 µg/mL (≈ 0.313 µM)
MIC (Staphylococcus aureus [1]): 0.25 µg/mL
Ratio MIC (Pseudomonas aeruginosa [12]): 4
MBC (Escherichia coli [13]): 0.03 µg/mL (≈ 0.0782 µM)
MIC (Escherichia coli [13]): 0.03 µg/mL (≈ 0.0782 µM)
IC50 [14]: 0.044 µg/mL (≈ 0.115 µM)
MIC (Escherichia coli [15]): 0.03 µg/mL
IC50 [16]: 1.2 µg/mL (≈ 3.13 µM)
IC50 [17]: 0.26 µg/mL (≈ 0.678 µM)
IC50 [18]: 0.047 µg/mL (≈ 0.123 µM)
Ratio MIC (Escherichia coli [19]): 1
Ratio MIC (Escherichia coli [20]): 1
MBC (Pseudomonas aeruginosa [21]): 1 µg/mL (≈ 2.61 µM)
MIC (Pseudomonas aeruginosa [21]): 1 µg/mL (≈ 2.61 µM)
Ratio MIC (Escherichia coli [22]): 2
IC50 [23]: 4.5 µg/mL (≈ 11.7 µM)
MIC (Escherichia coli [24]): 0.03 µg/mL
IC50 [25]: 0.013 µg/mL (≈ 0.0339 µM)
Ratio MIC (Escherichia coli [26]): 1
MIC (Escherichia coli [27]): 0.03 µg/mL
IC50 [28]: 15 µg/mL (≈ 39.1 µM)
IC50 [29]: 0.071 µg/mL (≈ 0.185 µM)
Ratio MIC (Pseudomonas aeruginosa [30]): 8
IC50 [31]: 4.5 µg/mL (≈ 11.7 µM)
Ratio MIC (Escherichia coli [32]): 1
IC50 [33]: 0.77 µg/mL (≈ 2.01 µM)
MIC (Escherichia coli [34]): 0.03 µg/mL
IC50 [35]: 0.11 µg/mL (≈ 0.287 µM)
MIC (Escherichia coli [36]): 0.03 µg/mL
IC50 [37]: 0.0033 µg/mL (≈ 0.00861 µM)
MIC (Escherichia coli [38]): 0.06 µg/mL
Ratio MIC (Escherichia coli [39]): 4
MIC (Escherichia coli [40]): 0.12 µg/mL
Ratio MIC (Staphylococcus aureus [2]): 8
MIC (Pseudomonas aeruginosa [41]): 2 µg/mL
MIC (Escherichia coli [42]): 0.06 µg/mL
Ratio MIC (Pseudomonas aeruginosa [43]): 16
Ratio MIC (Escherichia coli [3]): 2
MIC (Staphylococcus aureus [4]): 0.25 µg/mL
IC50 [44]: > 130 µg/mL
IC50 (Staphylococcus aureus [45]): 0.06 µg/mL (≈ 0.156 µM)
MBC (Staphylococcus aureus [45]): 0.12 µg/mL (≈ 0.313 µM)
MIC (Staphylococcus aureus [45]): 0.06 µg/mL (≈ 0.156 µM)
IC50 [46]: 0.82 µg/mL (≈ 2.14 µM)
MIC (Staphylococcus aureus [5]): 0.12 µg/mL
Ratio MIC (Staphylococcus aureus [6]): 4
ratio (Staphylococcus aureus [7]): 8
Ratio MIC (Escherichia coli [47]): 2
Ratio MIC (Staphylococcus aureus [8]): 8
IC50 [48]: 0.016 µg/mL (≈ 0.0417 µM)
MIC (Escherichia coli [49]): 0.06 µg/mL
IC50 [50]: 0.39 µg/mL (≈ 1.02 µM)
MIC (Pseudomonas aeruginosa [51]): 8 µg/mL
Ratio MIC (Escherichia coli [52]): 1
IC50 [53]: 0.018 µg/mL (≈ 0.0469 µM)
MIC (Pseudomonas aeruginosa [9]): 4 µg/mL
MIC (Escherichia coli [54]): 0.06 µg/mL
Ratio MIC (Escherichia coli [55]): 2
MIC (Staphylococcus aureus [10]): 0.25 µg/mL
